Patent publication US12544381B2, “Topical formulation for JAK inhibitor” (Incyte Corporation, priority 2010, dated 2026)
Where a name gives a salt, the structure may show the parent alone.

Experiment: Solubility studies (Example 4)
Type: physicochemical
Procedure: In order to determine the solubility of (R)-3-(4-(7H-pyrrolo[2,3-d]pyrimidin-4-yl)-1H-pyrazol-1-yl)-3-cyclopentylpropanenitrile (free base) or its phosphate salt, approximately 5 mL of a potential solvent was added to approximately 50 mg of the API or its salt at room temperature. The mixtures were suspended and rotated on a wheel. If the mixtures became clear solutions, more solid material was added. The suspensions were then suspended over 24 hours. The samples were filtered through 0.2 micron filters. The liquid portions were collected and diluted with 50/50 water methanol/water. The concentrations of the diluted samples were analyzed by HPLC. When the free base or salt was fairly insoluble, the results are approximate only.

Compound N#CC[C@H](C1CCCC1)n1cc(-c2ncnc3[nH]ccc23)cn1 [Phosphate Salt, (R)-3-(4-(7H-pyrrolo[2,3-d]pyrimidin-4-yl)-1H-pyrazol-1-yl)-3-cyclopentylpropanenitrile Phosphoric Acid Salt] has a Solubility (Benzyl alcohol) of 3000 µg/mL, a Solubility (Ethanol) of 7300 µg/mL and a Solubility (Glycerin) of 11000 µg/mL. For the same compound, the Solubility (Isopropanol) was 600 µg/mL, the Solubility (Isosorbide dimethyl ether) was 400 µg/mL and the Solubility (Olelyl alcohol) was 100 µg/mL. It also gave a Solubility (PEG 200) of 23000 µg/mL, a Solubility (PEG 300) of 14000 µg/mL and a Solubility (Propylene glycol) of 24000 µg/mL. It also gave a Solubility (Transcutol) of 10000 µg/mL, a Solubility (Trolamine) of 51000 µg/mL and a Solubility (Water/PEG 200 (50/50)) of 23000 µg/mL. It also gave a Solubility (Water/glycerin/trolamine (40/40/20)) of 18000 µg/mL, a Solubility (Water/glyercin (50/50)) of 21000 µg/mL and a Solubility (Water, room temperature) of 2700 µg/mL. For the same compound, the Solubility (pH 4, citric buffer, 0.1M) was 1500 µg/mL and the Solubility (pH 6, citric buffer, 0.1M) was 200 µg/mL.
